Results from PMC10373420, “A high-throughput screening system for SARS-CoV-2 entry inhibition, syncytia formation and cell toxicity” (Biological Procedures Online, 2023).
“Also recorded” adds a separate entry of the source. Counter-ions that a name gives are not always drawn. Like-named read-outs stand apart in the source and are kept apart here. Numbered stars: 1 amine (or outer) side, 2 acyl side, 3 side chain; on linkers, the order of the positions; unused ones are H or OH. Bridge positions count the residues as written; N and C are the ends. Square brackets hold non-standard residues; d marks the D form. Peptide text beside a SMILES is read from it. I, II: the chains in the order shown. Actinocin(9to1) = Cc1c2oc3c(C)ccc(C(=O)[*:1])c3nc-2c(C(=O)[*:2])c(N)c1=O; NMeV = CN[C@H](C(=O)O)C(C)C; Sar = CNCC(=O)O

Key:
VSV-eGFP-SARS-CoV-2 [1] = assay: microbe, parasite or virus in culture; format: cell-based; conditions: for inhibition at 1 µM: read-out: inhibition of VSV-eGFP-SARS-CoV-2 infection, 1 μM; for inhibition at 5 µM: read-out: inhibition of VSV-eGFP-SARS-CoV-2 infection, 5 μM; for inhibition at 10 µM: read-out: inhibition of VSV-eGFP-SARS-CoV-2 infection, 10 μM; for IC50: read-out: IC50 against VSV-eGFP-SARS-CoV-2 infection
VSV-eGFP-SARS-CoV-2 [2] = format: cell-based; conditions: 1 μM
rVSV-G-GFP = format: cell-based, vesicular stomatitis virus (VSV)
[3] = system: ACE2-Spike dependent syncytia formation; format: cell-based, human; conditions: IC50 concentration; for initiation of pseudoviral infection: control 7 hpi; for initiation of syncytia formation: imaging up to 24 hpi, control 12 hpi
[4] = system: SiHa ACE2 Cerulean H2B mCherry cells
[5] = Severe acute respiratory syndrome coronavirus 2, SiHa

Molecule: COc1ccc(/C=C/C(=O)c2ccccc2)cc1 [4-Methoxychalcone, reference compound]
- inhibition at 1 µM (VSV-eGFP-SARS-CoV-2 [1]; [5]): -11%
- inhibition at 5 µM (VSV-eGFP-SARS-CoV-2 [1]; [5]): -7%
- inhibition at 10 µM (VSV-eGFP-SARS-CoV-2 [1]; [5]): 26%

Molecule: CO[C@H]1/C=C\C=C(/C)C(=O)NC2=CC(=O)C(N)=C(C[C@@H](C)C[C@H](OC)[C@H](O)[C@@H](C)/C=C(\C)[C@@H]1OC(N)=O)C2=O [17-Aminodemethoxygeldanamycin]
- inhibition of VSV-eGFP-SARS-CoV-2 infection after pre-treatment of cells (VSV-eGFP-SARS-CoV-2 [2]): 50%
- inhibitory activity after preincubation of cells with natural product (in words) (VSV-eGFP-SARS-CoV-2 [2]): having inhibitory activity; also recorded: moderate level of viral entry inhibition
- rVSV-G-GFP infection inhibition (in words) (rVSV-G-GFP): moderate inhibition
- initiation of pseudoviral infection [3]: 8 hpi
- initiation of syncytia formation [3]: 12 hpi
- IC50 (VSV-eGFP-SARS-CoV-2 [1]): 560 nM

Molecule: CC(=O)O[C@@]1(C)C[C@@H]([C@H](O)CC2CC(=O)NC(=O)C2)C(=O)[C@@H](C)C1 [Acetoxycycloheximide]
- rVSV-G-GFP infection inhibition (in words) (rVSV-G-GFP): moderate level of inhibition
- initiation of pseudoviral infection [3]: 10 hpi
- initiation of syncytia formation [3]: 21 hpi
- IC50 (VSV-eGFP-SARS-CoV-2 [1]; [5]): 640 nM
- inhibition at 5 µM (VSV-eGFP-SARS-CoV-2 [1]; [5]): 100%
- inhibition at 10 µM (VSV-eGFP-SARS-CoV-2 [1]; [5]): 100%

Molecule: CC(=O)O[C@H]1C[C@H](O[C@H]2[C@@H](O)C[C@H](O[C@H]3[C@@H](O)C[C@H](O[C@H]4CC[C@@]5(C)[C@H](CC[C@@H]6[C@@H]5C[C@@H](O)[C@]5(C)[C@@H](C7=CC(=O)OC7)CC[C@]65O)C4)O[C@@H]3C)O[C@@H]2C)O[C@H](C)[C@H]1O[C@@H]1O[C@H](CO)[C@@H](O)[C@H](O)[C@H]1O [Allocor]
- inhibition at 1 µM (VSV-eGFP-SARS-CoV-2 [1]; [5]): 49%
- inhibition at 5 µM (VSV-eGFP-SARS-CoV-2 [1]; [5]): 89%
- inhibition at 10 µM (VSV-eGFP-SARS-CoV-2 [1]; [5]): 92%

Molecule: C[C@H](N)C(=O)N[C@@H]1[C@H]2C(=C(O)C[C@@H](O)[C@@H]2O)C(=O)O[C@]1(C)C(Cl)Cl [Bactobolin]
- inhibition at 1 µM (VSV-eGFP-SARS-CoV-2 [1]; [5]): 56%
- inhibition at 5 µM (VSV-eGFP-SARS-CoV-2 [1]; [5]): 99%
- inhibition at 10 µM (VSV-eGFP-SARS-CoV-2 [1]; [5]): 100%

Molecule: C[C@H]1CCC/C=C/[C@@H]2C[C@H](O)C[C@H]2[C@H](O)/C=C/C(=O)O1 [Brefeldin A]
- inhibition at 1 µM (VSV-eGFP-SARS-CoV-2 [1]; [5]): 66%
- inhibition at 5 µM (VSV-eGFP-SARS-CoV-2 [1]; [5]): 82%
- inhibition at 10 µM (VSV-eGFP-SARS-CoV-2 [1]; [5]): 86%

Molecule: Cc1c2oc3c(C)ccc(C(=O)N[C@@H]4C(=O)N[C@H](C(C)C)C(=O)N5CCC[C@H]5C(=O)N(C)CC(=O)N(C)[C@@H](C(C)C)C(=O)O[C@@H]4C)c3nc-2c(C(=O)N[C@@H]2C(=O)N[C@H](C(C)C)C(=O)N3CCC[C@H]3C(=O)N(C)CC(=O)N(C)[C@@H](C(C)C)C(=O)O[C@@H]2C)c(N)c1=O [Dactinomycin, reference compound] (I: T[dV]P[Sar][NMeV] / II: T[dV]P[Sar][NMeV]; ester I:1-I:C, II:1-II:C; linker I:N-II:N via Actinocin(9to1))
- inhibition at 1 µM (VSV-eGFP-SARS-CoV-2 [1]; [5]): 39%
- inhibition at 5 µM (VSV-eGFP-SARS-CoV-2 [1]; [5]): 56%
- inhibition at 10 µM (VSV-eGFP-SARS-CoV-2 [1]; [5]): 58%

Molecule: COc1cccc2c1C(=O)c1c(O)c3c(c(O)c1C2=O)C[C@@](O)(C(C)=O)C[C@@H]3O[C@H]1C[C@H](N)[C@H](O)[C@H](C)O1 [Daunorubicin hydrochloride, reference compound]
- inhibition at 1 µM (VSV-eGFP-SARS-CoV-2 [1]; [5]): -16%
- inhibition at 5 µM (VSV-eGFP-SARS-CoV-2 [1]; [5]): 40%
- inhibition at 10 µM (VSV-eGFP-SARS-CoV-2 [1]; [5]): 41%

Molecule: CC[C@H](C)[C@H]1NC(=O)[C@@H](NC(=O)[C@@H](CC(C)C)N(C)C(=O)[C@@H]2CCCN2C(=O)C(C)O)[C@@H](C)OC(=O)[C@H](Cc2ccc(OC)cc2)N(C)C(=O)[C@@H]2CCCN2C(=O)[C@H](CC(C)C)NC(=O)[C@@H](C)C(=O)[C@H](C(C)C)OC(=O)C[C@@H]1O (some centres unmarked) [Didemnin B]
- inhibitory activity after preincubation of cells with natural product (in words) (VSV-eGFP-SARS-CoV-2 [2]): having inhibitory activity; also recorded: could inhibit viral infection
- cellular toxicity (H2B mCherry nuclear condensation) [4]: exhibited toxicity at higher doses
- toxicity at IC50 dose [4]: minimum toxicity
- rVSV-G-GFP infection inhibition (in words) (rVSV-G-GFP): could inhibit the VSVG infection; also recorded: rVSV-G-GFP inhibition
- initiation of pseudoviral infection [3]: 8 hpi
- initiation of syncytia formation [3]: no syncytia was observed
- initiation of syncytia formation ([3]; listed as Didemin B): inhibits syncytia formation
- IC50 (VSV-eGFP-SARS-CoV-2 [1]; [5]): 190 nM
- inhibition at 5 µM (VSV-eGFP-SARS-CoV-2 [1]; [5]): 100%
- inhibition at 10 µM (VSV-eGFP-SARS-CoV-2 [1]; [5]): 100%

Molecule: CC[C@](C)(O)C(=O)O[C@H]1C(=O)O[C@@H]2C[C@H]3C(C)=C[C@H](O)[C@@H](O)[C@]3(C)[C@H]3[C@]4(O)OC[C@]32[C@@H]1[C@@H](C)[C@H]4O [Glaucarubin]
- inhibition at 1 µM (VSV-eGFP-SARS-CoV-2 [1]; [5]): -7%
- inhibition at 5 µM (VSV-eGFP-SARS-CoV-2 [1]; [5]): -1%
- inhibition at 10 µM (VSV-eGFP-SARS-CoV-2 [1]; [5]): 33%

Molecule: CC1=C2C(=CC(C)(C)[C@@H]2O)C(=O)[C@](C)(O)C12CC2 [Illudin M]
- inhibition at 1 µM (VSV-eGFP-SARS-CoV-2 [1]; [5]): 31%
- inhibition at 5 µM (VSV-eGFP-SARS-CoV-2 [1]; [5]): 54%
- inhibition at 10 µM (VSV-eGFP-SARS-CoV-2 [1]; [5]): 73%

Molecule: CC(=O)O[C@H]1C[C@H](O[C@H]2[C@@H](O)C[C@H](O[C@H]3[C@@H](O)C[C@H](OC4CC[C@@]5(C)[C@H](CC[C@@H]6[C@@H]5CC[C@]5(C)[C@@H](C7=CC(=O)OC7)CC[C@]65O)C4)O[C@@H]3C)O[C@@H]2C)O[C@H](C)[C@H]1O[C@@H]1O[C@H](CO)[C@@H](O)[C@H](O)[C@H]1O (some centres unmarked) [Lanatoside A]
- inhibition at 1 µM (VSV-eGFP-SARS-CoV-2 [1]; [5]): 81%
- inhibition at 5 µM (VSV-eGFP-SARS-CoV-2 [1]; [5]): 97%
- inhibition at 10 µM (VSV-eGFP-SARS-CoV-2 [1]; [5]): 98%

Molecule: CCCCCC1=C/C(=C/c2[nH]c(-c3ccc[nH]3)cc2OC)N=C1C [Prodigiosin]
- inhibition at 1 µM (VSV-eGFP-SARS-CoV-2 [1]; [5]): 86%
- inhibition at 5 µM (VSV-eGFP-SARS-CoV-2 [1]; [5]): 98%
- inhibition at 10 µM (VSV-eGFP-SARS-CoV-2 [1]; [5]): 100%

Molecule: C[C@@H]1O[C@@H](O[C@@H]2C=C3CC[C@@H]4[C@H](CC[C@]5(C)[C@@H](c6ccc(=O)oc6)CC[C@]45O)[C@@]3(C)CC2)[C@H](O)[C@H](O)[C@H]1O [Proscillaridin, reference compound]
- rVSV-G-GFP infection inhibition (in words) (rVSV-G-GFP): moderate inhibition
- initiation of pseudoviral infection [3]: 8 hpi
- initiation of syncytia formation [3]: 16 hpi
- IC50 (VSV-eGFP-SARS-CoV-2 [1]; [5]): 220 nM
- inhibition at 5 µM (VSV-eGFP-SARS-CoV-2 [1]; [5]): 98%
- inhibition at 10 µM (VSV-eGFP-SARS-CoV-2 [1]; [5]): 99%

Molecule: C[C@@H]1O[C@@H](O[C@@H]2C=C3CC[C@@H]4[C@H](CC[C@]5(C)[C@@H](c6ccc(=O)oc6)CC[C@]45O)[C@@]3(C)CC2)[C@H](O)[C@H](O)[C@H]1O[C@@H]1O[C@H](CO)[C@@H](O)[C@H](O)[C@H]1O [Scillaren A]
- rVSV-G-GFP infection inhibition (in words) (rVSV-G-GFP): moderate level of inhibition
- initiation of pseudoviral infection [3]: 8 hpi
- initiation of syncytia formation [3]: 22 hpi
- IC50 (VSV-eGFP-SARS-CoV-2 [1]): 410 nM

Molecule: CSC[S@+]([O-])C[C@H](CO)NC(=O)/C=C/c1c(C)[nH]c(=O)[nH]c1=O [Sparsomycin]
- inhibition at 1 µM (VSV-eGFP-SARS-CoV-2 [1]; [5]): -2%
- inhibition at 5 µM (VSV-eGFP-SARS-CoV-2 [1]; [5]): 80%
- inhibition at 10 µM (VSV-eGFP-SARS-CoV-2 [1]; [5]): 94%

Molecule: COC1=C(N)C(=O)c2nc(-c3nc(C(=O)O)c(C)c(-c4ccc(OC)c(OC)c4O)c3N)ccc2C1=O [Streptonigrin]
- toxicity at IC50 dose [4]: minimum toxicity
- rVSV-G-GFP infection inhibition (in words) (rVSV-G-GFP): could inhibit the VSVG infection; also recorded: rVSV-G-GFP inhibition
- initiation of pseudoviral infection [3]: 8 hpi
- initiation of syncytia formation [3]: 12 hpi
- IC50 (VSV-eGFP-SARS-CoV-2 [1]; [5]): 380 nM
- inhibition at 5 µM (VSV-eGFP-SARS-CoV-2 [1]; [5]): 100%
- inhibition at 10 µM (VSV-eGFP-SARS-CoV-2 [1]; [5]): 100%

Molecule: CC[C@]1(O)C[C@H]2CN(CCc3c([nH]c4ccccc34)[C@@](C(=O)OC)(c3cc4c(cc3OC)N(C=O)[C@H]3[C@@](O)(C(=O)OC)[C@H](OC(C)=O)[C@]5(CC)C=CCN6CC[C@]43[C@@H]65)C2)C1 [Vincristine sulfate, reference compound]
- inhibition at 1 µM (VSV-eGFP-SARS-CoV-2 [1]; [5]): 32%
- inhibition at 5 µM (VSV-eGFP-SARS-CoV-2 [1]; [5]): 38%
- inhibition at 10 µM (VSV-eGFP-SARS-CoV-2 [1]; [5]): 39%

Molecule: Casirivimab
- inhibition of VSV-eGFP-SARS-CoV-2 infection (in words) (VSV-eGFP-SARS-CoV-2 [1]): inhibition of VSV-eGFP-SARS-CoV-2 infection
- IC50 (VSV-eGFP-SARS-CoV-2 [1]): 0.045 nM
